Values of other authors, collected in US20120184023A1, “Method of Preparing A Glycoside Of A Mono- Or Diacylglycerol Product From A Plant Material” (HYBEN VITAL LICENS APS, priority 2006, published 2012).

Legend:
mononuclear leukocytes = conditions: reported in WO 03/043613
[1] = tested on: poly-morphonuclear monocytes; conditions: reported in WO 03/043613

## CC/C=C\C/C=C\C/C=C\CCCCCCCC(=O)OCC(CO[C@@H]1O[C@H](CO)[C@H](O)[C@H](O)[C@H]1O)OC(=O)CCCCCCC/C=C\C/C=C\C/C=C\CC (stereo partly drawn) [GOPO, 3-β-D-galactopyranosyloxy-2-(octadeca-9Z,12Z,15Z-trienoyloxy) propanyloctadeca-9Z,12Z,15Z-trienoate]
Mononuclear leukocytes
  chemotaxis of mononuclear leukocytes: alleviating
[1]
  chemiluminescence of poly-morphonuclear monocytes: alleviating chemiluminescence
